Reference: US20220289794A1, “SYNTHETIC ANTIMICROBIAL PEPTIDES” (priority 2019, published 2022)
In brackets after ≈: the same amount, converted by molar mass. Where two headings read alike, the source gives them in different places. Positions of bridges follow the written chain, without caps; N, C: chain ends. Non-standard residues stand in square brackets, D forms with d. Residues, ends and D or L forms follow the SMILES beside them. 2Nal = N[C@@H](Cc1ccc2ccccc2c1)C(=O)O

How the values were obtained:
[1] = test system: Escherichia coli (E. Coli, ATCC 25922); conditions: ATCC 25922
human red blood cells = test system: human red blood cells; set-up: unit not given beside the values
[2] = test system: Pseudomonas aeruginosa (PSA, ATCC 27883); conditions: ATCC 27883
[3] = test system: Methicillin-resistant Staphylococcus aureus MRSA (ATCC BAA-1556); conditions: ATCC BAA-1556
[4] = test system: Methicillin-resistant Staphylococcus aureus MRSA (ATCC BAA-1556); conditions: ATCC BAA-1556; remark: listed apart in the source
[5] = test system: Klebsiella pneumoniae (KPC, ATCC BAA-1705); conditions: ATCC BAA-1705
[6] = test system: Klebsiella pneumoniae (ATCC BAA-1705); conditions: ATCC BAA-1705
[7] = test system: Pseudomonas aeruginosa (ATCC 27883); conditions: ATCC 27883
[8] = test system: Escherichia coli (E. Coli, ATCC 25922); conditions: Table 26, Escherichia coli (ATCC 25922)
[9] = test system: Klebsiella pneumoniae (KPC, ATCC BAA-1705); conditions: Table 26, Klebsiella pneumoniae (ATCC BAA-1705)
MRSA (ATCC BAA-1556) = conditions: Table 26, MRSA (ATCC BAA-1556)
[10] = test system: Pseudomonas aeruginosa (PSA, ATCC 27883); experiment: Synergy checkerboard assay (FIC index); type: cell-based; conditions: Table 26, Pseudomonas aeruginosa (ATCC 27883)
[11] = test system: Escherichia coli (ATCC 25922); conditions: ATCC 25922
[12] = test system: Escherichia coli (ATCC 25922); type: cell-based
Method: (§1) All bacteria pathogens tested clinically reported multi-drug resistant strains. The antibacterial activity was tested against Gram-negative strains namely; Pseudomonas aeruginosa (PSA), Klebsiella pneumoniae (KPC), Escherichia coli (E. coli) and Gram-positive Methicillin-resistant Staphylococcus aureus (MRSA). The minimum inhibitory concentration (MIC) is the lowest concentration of the antibiotic that inhibits microbial growths. MIC is determined by visual inspection or use of spectrophotometer plate reader to determine media turbidity. On the other hand, the minimum bactericidal concentration (MBC) is the lowest concentration that kills […] of bacterial growth. Cytotoxicity of peptides in the hepatic cell line, human skin fibroblast cell line, heart/myocardium cells, and human lung fibroblast cells is shown in FIGS. 36-46). […] (IFX-315)-Au-NP with antibiotics are shown in FIGS. 49-58 when the gold nanoparticles are formed by the peptide followed by addition of the antibiotic. […] (IFX-301) with antibiotics (1:1 ratio) first and then used in the synthesis of Au-NP in antibacterial activities is shown in FIGS. 59-68.
(§2) The MBC is identified by determining the lowest concentration of antibacterial agent that reduces the viability (concentration of peptides necessary to achieve a bactericidal effect) of the initial bacterial inoculum by ≥99.9%.

[13] = test system: Pseudomonas aeruginosa (ATCC 27883); type: cell-based; conditions: ATCC 27883
Method: as §1, §2

[14] = test system: Klebsiella pneumoniae (ATCC BAA-1705); type: cell-based
Method: as §1, §2

[15] = test system: Methicillin-resistant Staphylococcus aureus MRSA (ATCC BAA-1556); type: cell-based
Method: as §1, §2

[16] = type: cell-based; conditions: Escherichia coli (ATCC 25922)
[17] = peptide in combination with antibiotics

Compound	Escherichia coli (ATCC 25922) MIC [1]	Pseudomonas aeruginosa (ATCC 27883) MIC [2]	MRSA (ATCC BAA-1556) MIC [4]	Klebsiella pneumoniae (ATCC BAA-1705) MIC [5]	KPC (ATCC BAA-1705) MIC [6]	PSA (ATCC 27883 MIC) [7]	MRSA (ATCC BAA-1556) MIC [3]	E. coli (ATCC 25922) MIC [11]	E. coli (ATCC 25922) MBC [12]	PSA (ATCC 27883) MBC [13]	KPC (ATCC BAA-1705) MBC [14]	MRSA (ATCC BAA-1556) MBC [15]	other results
N=C(N)NCCC[C@H](NC(=O)[C@H](CCCNC(=N)N)NC(=O)[C@H](CCCNC(=N)N)NC(=O)[C@H](CCCNC(=N)N)NC(=O)[C@@H](N)CS)C(=O)N[C@@H](Cc1c[nH]c2ccccc12)C(=O)N[C@@H](Cc1c[nH]c2ccccc12)C(=O)N[C@@H](Cc1c[nH]c2ccccc12)C(=O)N[C@@H](Cc1c[nH]c2ccccc12)C(=O)N[C@@H](CS)C(=O)O [IFX-328] (H-CRRRRWWWWC-OH)					16 µg/mL	512 µg/mL	64 µg/mL	256 µg/mL	512 µg/mL	512 µg/mL	32 µg/mL	128 µg/mL	
N=C(N)NCCC[C@@H]1NC(=O)[C@H](CS)NC(=O)[C@H](Cc2c[nH]c3ccccc23)NC(=O)[C@H](Cc2c[nH]c3ccccc23)NC(=O)[C@H](Cc2c[nH]c3ccccc23)NC(=O)[C@H](Cc2c[nH]c3ccccc23)NC(=O)[C@H](CS)NC(=O)[C@H](CCCNC(=N)N)NC(=O)[C@H](CCCNC(=N)N)NC(=O)[C@H](CCCNC(=N)N)NC1=O [IFX-329] (cyclo(RRRCWWWWCR))					32 µg/mL	128 µg/mL	8 µg/mL	32 µg/mL	64 µg/mL	128 µg/mL	32 µg/mL	32 µg/mL	
N=C(N)NCCC[C@@H]1NC(=O)[C@H](CCCNC(=N)N)NC(=O)[C@H](CCCNC(=N)N)NC(=O)[C@@H]2CSSC[C@H](NC(=O)[C@H](CCCNC(=N)N)NC1=O)C(=O)N[C@@H](Cc1c[nH]c3ccccc13)C(=O)N[C@@H](Cc1c[nH]c3ccccc13)C(=O)N[C@@H](Cc1c[nH]c3ccccc13)C(=O)N[C@@H](Cc1c[nH]c3ccccc13)C(=O)N2 [IFX-330] (cyclo(RRRCWWWWCR); disulfide 4-9)					32 µg/mL	128 µg/mL	8 µg/mL	32 µg/mL	64 µg/mL	256 µg/mL	128 µg/mL	32 µg/mL	
N=C(N)NCCC[C@H](NC(=O)[C@H](CCCNC(=N)N)NC(=O)[C@H](CCCNC(=N)N)NC(=O)[C@@H](N)CCCNC(=N)N)C(=O)N[C@@H](CS)C(=O)N[C@@H](Cc1c[nH]c2ccccc12)C(=O)N[C@@H](Cc1c[nH]c2ccccc12)C(=O)N[C@@H](Cc1c[nH]c2ccccc12)C(=O)N[C@@H](Cc1c[nH]c2ccccc12)C(=O)N[C@@H](CS)C(=O)O [IFX-331] (H-RRRRCWWWWC-OH)					64 µg/mL	128 µg/mL	16 µg/mL	32 µg/mL	32 µg/mL	265 µg/mL	128 µg/mL	32 µg/mL	
Polymyxin B													MIC, MgCl2 ([16]; MH broth + 1 mM MgCl2): 1.5 µg/mL; MIC, CaCl2 ([16]; MH broth + 2 mM CaCl2): 0.7 µg/mL; MIC, NH4Cl ([16]; MH broth + 6 mM NH4Cl): 0.7 µg/mL; MIC, NaCl ([16]; MH broth + 150 mM NaCl): 0.7 µg/mL; MIC, FBS ([16]; MH broth + FBS (25%)): 0.7 µg/mL; MIC, KCl ([16]; MH broth + […] KCl): 0.7 µg/mL; MIC, MH Media ([16]; MH broth, no supplement): 0.7 µg/mL

Now from value to compound, other results behind:

Escherichia coli (ATCC 25922) MIC [1]	Pseudomonas aeruginosa (ATCC 27883) MIC [2]	MRSA (ATCC BAA-1556) MIC [4]	Klebsiella pneumoniae (ATCC BAA-1705) MIC [5]	KPC (ATCC BAA-1705) MIC [6]	PSA (ATCC 27883 MIC) [7]	MRSA (ATCC BAA-1556) MIC [3]	E. coli (ATCC 25922) MIC [11]	Compound	E. coli (ATCC 25922) MBC [12]	PSA (ATCC 27883) MBC [13]	KPC (ATCC BAA-1705) MBC [14]	MRSA (ATCC BAA-1556) MBC [15]	other results
16 µg/mL	16 µg/mL	2 µg/mL	32 µg/mL					N=C(N)NCCC[C@@H]1NC(=O)[C@H](CCCNC(=N)N)NC(=O)[C@H](CCCNC(=N)N)NC(=O)[C@H](Cc2c[nH]c3ccccc23)NC(=O)[C@H](Cc2ccc3ccccc3c2)NC(=O)[C@H](Cc2ccc3ccccc3c2)NC(=O)[C@H](CCCNC(=N)N)NC1=O [IFX-031, c[Arg-Arg-Arg-Arg-NaI-NaI-Trp]] (cyclo(RRRR[2Nal][2Nal]W))					HC50 (human red blood cells): 350; MIC MRSA ATCC BAA-1556 [3]: 1.5 µg/mL (≈ 1.24 µM)
16 µg/mL	16 µg/mL	4 µg/mL	32 µg/mL					N=C(N)NCCC[C@@H]1NC(=O)[C@H](CCCNC(=N)N)NC(=O)[C@H](CCCNC(=N)N)NC(=O)[C@H](CCCCN)NC(=O)[C@H](Cc2c[nH]c3ccccc23)NC(=O)[C@H](Cc2c[nH]c3ccccc23)NC(=O)[C@H](Cc2c[nH]c3ccccc23)NC(=O)[C@H](Cc2c[nH]c3ccccc23)NC(=O)[C@H](CCCNC(=N)N)NC(=O)[C@H](CCCNC(=N)N)NC1=O [IFX-315, [R5W4K]] (cyclo(RRRRRWWWWK))					MIC K. pneumoniae (ATCC BAA-1705) [6]: 32 µg/mL (≈ 19.3 µM); MIC P. aeruginosa ATCC 27883 [7]: 16 µg/mL (≈ 9.67 µM); MIC (peptide) ([8]; peptide alone): MIC = 16 ug/ml; FIC (peptide) [8, 17]: FIC = 4 ug/ml; MIC (peptide) ([9]; peptide alone): MIC = 64 ug/ml; FIC (peptide) [9, 17]: FIC = 16 ug/ml; MIC MRSA ATCC BAA-1556 [3]: 4 µg/mL (≈ 2.42 µM); MIC (peptide) (MRSA (ATCC BAA-1556); peptide alone): MIC = 8 ug/ml; FIC (peptide) (MRSA (ATCC BAA-1556); [17]): FIC = 2 ug/ml; MIC (peptide) ([10]; peptide alone): MIC = 16 ug/ml; FIC (peptide) [10, 17]: FIC = 4 ug/ml; MIC E. coli ATCC 25922 [11]: 16 µg/mL (≈ 9.67 µM)
				256 µg/mL	512 µg/mL	32 µg/mL	256 µg/mL	N=C(N)NCCC[C@@H]1NC(=O)[C@H](CCCNC(=N)N)NC(=O)[C@H](CCCNC(=N)N)NC(=O)[C@H](CCCNC(=N)N)NC(=O)[C@@H](N)CSSC[C@@H](C(=O)O)NC(=O)[C@H](Cc2c[nH]c3ccccc23)NC(=O)[C@H](Cc2c[nH]c3ccccc23)NC(=O)[C@H](Cc2c[nH]c3ccccc23)NC(=O)[C@H](Cc2c[nH]c3ccccc23)NC1=O [IFX-327] (H-CRRRRWWWWC-OH; disulfide 1-10)	512 µg/mL	512 µg/mL	512 µg/mL	64 µg/mL	
				32 µg/mL	128 µg/mL	16 µg/mL	16 µg/mL	N=C(N)NCCC[C@H](NC(=O)[C@H](CCCNC(=N)N)NC(=O)[C@H](CCCNC(=N)N)NC(=O)[C@@H](N)CCCNC(=N)N)C(=O)N[C@H]1CSSC[C@@H](C(=O)O)NC(=O)[C@H](Cc2c[nH]c3ccccc23)NC(=O)[C@H](Cc2c[nH]c3ccccc23)NC(=O)[C@H](Cc2c[nH]c3ccccc23)NC(=O)[C@H](Cc2c[nH]c3ccccc23)NC1=O [IFX-333] (H-RRRRCWWWWC-OH; disulfide 5-10)	32 µg/mL	128 µg/mL	64 µg/mL	32 µg/mL	
16 µg/mL	16 µg/mL	4 µg/mL	32 µg/mL					N=C(N)NCCC[C@@H]1NC(=O)[C@H](CCCNC(=N)N)NC(=O)[C@H](CCCNC(=N)N)NC(=O)[C@H](CCCCN)NC(=O)[C@H](Cc2c[nH]c3ccccc23)NC(=O)[C@H](Cc2c[nH]c3ccccc23)NC(=O)[C@H](Cc2c[nH]c3ccccc23)NC(=O)[C@H](Cc2c[nH]c3ccccc23)NC(=O)[C@H](CCCNC(=N)N)NC(=O)[C@H](CCCNC(=N)N)NC1=O [[R4W5K] (IFX-315)] (cyclo(RRRRRWWWWK))					
